Laboratory results taken from US10760110B2, “Antibiotic testing and screening system” (priority 2017, dated 2020).
Like-named read-outs stand apart in the source and are kept apart here.

Tests used:
[1] = tested on: K. pneumoniae NVT1001 gyrA/parC and gyrA/parC/ramR mutants and revertants; assay: Etest MIC of quinolones, gyrA/parC and gyrA/parC/ramR mutants and their revertants (Table 11); assay type: cell-based; details: Klebsiella pneumoniae
From the text: The allelic-exchange method was used to restore the wild-type gene in the K. pneumoniae NVT1001 mutants with constructed chromosome-mediated resistance mechanisms, as described by Tsai et al.^19 Briefly, a DNA fragment of the entire wild-type gene sequence along with flanking regions was amplified from K. pneumoniae NVT1001 using PCR with specific primers. The resulting PCR fragment was digested and then cloned into pUT-KB. For homologous recombination, this plasmid was transformed into E. coli S17-1 λpir^23 via electroporation and mobilized into the K. pneumoniae NVT1001 mutant via conjugation. […] After incubation in 20 mL BHI broth for 6 hours at 37° C. in the absence of kanamycin, the fully grown cultures were spread onto LB agar plates supplemented with 10% sucrose. After the double crossover occurred, the sucrose-resistant and kanamycin-susceptible colonies were selected, and the restoration of the wild-type gene was confirmed via DNA sequencing.
(§1) The MICs of antibiotics were determined using the Etest (Biodisk AB, Sweden) according to the manufacturer's instructions. The MICs from the Etest, which fall between standard two-fold dilutions, were rounded up to the next highest two-fold value. The MICs of ceftazidime and cefotaxime against K. pneumoniae NVT1001 harbouring the pACYC177 plasmid with blaOXA-48 were further determined using a broth microdilution test according to the recommendations of the CLSI,^25 and the results were interpreted according to the breakpoints established by the CLSI in 2017.^25 Meanwhile, due to the lack of CLSI breakpoints in 2016 and 2017, the results for cephalothin were interpreted according to the breakpoints established by the CLSI in 2015,^26 and the results for moxifloxacin were interpreted according to the breakpoints established by the EUCAST in 2017.^27

[2] = tested on: A. baumannii KW1 and its GyrA/ParC mutants; assay: Etest MIC of quinolones, GyrA and/or ParC mutations (Table 17); assay type: cell-based; details: Acinetobacter baumannii
From the text: DNA fragments of the entire adeR, adeS, gyrA and parC along with their flanking regions were amplified from A. baumannii KW1 using PCR with specific primer pairs and then cloned into plasmid pUT-KB. The QuikChange site-directed mutagenesis kit (Stratagene) was used to generate mutations in the adeR, adeS, gyrA and parC genes in the plasmids using the methods described by the manufacturer. For homologous recombination, plasmids containing mutations in the adeR, adeS, gyrA or parC gene were transformed into E. coli S17-1 λpir^23 via electroporation and mobilized into A. baumannii KW1 via conjugation. Single-crossover strains were selected from Luria-Bertani (LB) plates supplemented with cefotaxime (1 μg/ml) and kanamycin ([…]), as the growth of non-A. baumannii contaminants is suppressed by cefotaxime (1 μg/ml). The kanamycin-resistant transconjugants were selected and the insertion of plasmids was verified via PCR. After incubation in 20 ml brain heart infusion (BHI) broth for 6 hours in the absence of kanamycin at 37° C., the fully grown cultures were spread onto LB plates supplemented with 10% sucrose. After the double crossover occurred, the sucrose-resistant and kanamycin-susceptible colonies were selected, and the gene mutations were confirmed via PCR.
as §1

[3] = S83F/D87N/S80I::F83S/N87D/I80S revertant, read-out: MIC
[4] = S83F/D87N/S80I::I80S revertant, read-out: MIC
[5] = S83F/D87N/S80I::N87D revertant, read-out: MIC
[6] = S83F/D87N/S80I::N87D/I80S revertant, read-out: MIC
[7] = S83I/D87N/S80I::I80S revertant, read-out: MIC
[8] = S83I/D87N/S80I::I83S/N87D/I80S revertant, read-out: MIC
[9] = S83I/D87N/S80I::N87D revertant, read-out: MIC
[10] = S83I/D87N/S80I::N87D/I80S revertant, read-out: MIC
[11] = S83L/D87N/S80I::I80S revertant, read-out: MIC
[12] = S83L/D87N/S80I::L83S/N87D/I80S revertant, read-out: MIC
[13] = S83L/D87N/S80I::N87D revertant, read-out: MIC
[14] = S83L/D87N/S80I::N87D/I80S revertant, read-out: MIC
[15] = S83Y/D87N/S80I::I80S revertant, read-out: MIC
[16] = S83Y/D87N/S80I::N87D revertant, read-out: MIC
[17] = S83Y/D87N/S80I::N87D/I80S revertant, read-out: MIC
[18] = S83Y/D87N/S80I::Y83S/N87D/I80S revertant, read-out: MIC
[19] = ΔramR/S83I/D87N/S80I:: ramR/I83S revertant
[20] = ΔramR/S83I/D87N/S80I:: ramR/I83S/I80S revertant
[21] = ΔramR/S83I/D87N/S80I:: ramR/I83S/N87D revertant
[22] = ΔramR/S83I/D87N/S80I::I83S/N87D/I80S revertant
[23] = ΔramR/S83I/D87N/S80I::N87D revertant
[24] = ΔramR/S83I/D87N/S80I::N87D/I80S revertant
[25] = ΔramR/S83I/D87N/S80I::ramR/I83S/N87D/I80S

Structure (SMILES) | MIC ([1]; S83F/D87N/S80I mutant) | MIC [1, 3] | MIC [1, 4] | MIC [1, 5] | MIC [1, 6] | MIC ([1]; S83I/D87N/S80I mutant) | MIC [1, 7] | MIC [1, 8] | MIC [1, 9] | MIC [1, 10] | MIC ([1]; S83L/D87N/S80I mutant) | MIC [1, 11] | MIC [1, 12] | MIC [1, 13] | MIC [1, 14] | MIC ([1]; S83Y/D87N/S80I mutant) | MIC [1, 15] | MIC [1, 16] | MIC [1, 17] | MIC [1, 18] | other results
CC1COc2c(N3CCN(C)CC3)c(F)cc3c(=O)c(C(=O)O)cn1c23 (stereo not drawn) [Ofloxacin, ofloxacin] | 16 µg/mL | 0.25 µg/mL | 2 µg/mL | 4 µg/mL | 2 µg/mL | 32 µg/mL | 2 µg/mL | 0.25 µg/mL | 8 µg/mL | 2 µg/mL | 32 µg/mL | 2 µg/mL | 0.25 µg/mL | 4 µg/mL | 2 µg/mL | 16 µg/mL | 2 µg/mL | 4 µg/mL | 2 µg/mL | 0.25 µg/mL | MIC ([1]; ΔramR/S83I/D87N/S80I mutant): > 32 µg/mL; MIC [1, 19]: 1 µg/mL; MIC [1, 20]: 1 µg/mL; MIC [1, 21]: 0.25 µg/mL; MIC [1, 22]: 2 µg/mL; MIC [1, 23]: > 32 µg/mL; MIC [1, 24]: > 32 µg/mL; MIC [1, 25]: 0.25 µg/mL; MIC ([2]; E84K mutant): 0.38 µg/mL; MIC ([2]; G78C mutant): 0.38 µg/mL; MIC ([2]; KW1, read-out: MIC): 0.38 µg/mL; MIC ([2]; S80L mutant): 0.5 µg/mL; MIC ([2]; S80W mutant): 0.5 µg/mL; MIC ([2]; S80Y mutant): 0.38 µg/mL; MIC ([2]; S83L mutant): 6 µg/mL; MIC ([2]; S83L/E84K mutant): > 32 µg/mL; MIC ([2]; S83L/G78C mutant): 32 µg/mL; MIC ([2]; S83L/S80L mutant): > 32 µg/mL; MIC ([2]; S83L/S80W mutant): > 32 µg/mL; MIC ([2]; S83L/S80Y mutant): > 32 µg/mL
COc1c(N2C[C@@H]3CCCN[C@@H]3C2)c(F)cc2c(=O)c(C(=O)O)cn(C3CC3)c12 [Moxifloxacin, moxifloxacin] | 32 µg/mL | 0.125 µg/mL | 1 µg/mL | 0.5 µg/mL | 0.5 µg/mL | > 32 µg/mL | 1 µg/mL | 0.125 µg/mL | 4 µg/mL | 1 µg/mL | 32 µg/mL | 1 µg/mL | 0.125 µg/mL | 1 µg/mL | 0.5 µg/mL | 32 µg/mL | 0.5 µg/mL | 0.5 µg/mL | 0.5 µg/mL | 0.125 µg/mL | MIC ([1]; ΔramR/S83I/D87N/S80I mutant): > 32 µg/mL; MIC [1, 19]: 1 µg/mL; MIC [1, 20]: 0.5 µg/mL; MIC [1, 21]: 0.25 µg/mL; MIC [1, 22]: 1 µg/mL; MIC [1, 23]: > 32 µg/mL; MIC [1, 24]: 8 µg/mL; MIC [1, 25]: 0.125 µg/mL; MIC ([2]; E84K mutant): 0.19 µg/mL; MIC ([2]; G78C mutant): 0.19 µg/mL; MIC ([2]; KW1, read-out: MIC): 0.19 µg/mL; MIC ([2]; S80L mutant): 0.25 µg/mL; MIC ([2]; S80W mutant): 0.19 µg/mL; MIC ([2]; S80Y mutant): 0.19 µg/mL; MIC ([2]; S83L mutant): 0.75 µg/mL; MIC ([2]; S83L/E84K mutant): 6 µg/mL; MIC ([2]; S83L/G78C mutant): 4 µg/mL; MIC ([2]; S83L/S80L mutant): 6 µg/mL; MIC ([2]; S83L/S80W mutant): 8 µg/mL; MIC ([2]; S83L/S80Y mutant): 6 µg/mL
C[C@H]1COc2c(N3CCN(C)CC3)c(F)cc3c(=O)c(C(=O)O)cn1c23 [Levofloxacin, levofloxacin] | 8 µg/mL | 0.06 µg/mL | 0.5 µg/mL | 1 µg/mL | 0.5 µg/mL | 8 µg/mL | 1 µg/mL | 0.06 µg/mL | 4 µg/mL | 1 µg/mL | 8 µg/mL | 1 µg/mL | 0.06 µg/mL | 2 µg/mL | 1 µg/mL | 4 µg/mL | 0.5 µg/mL | 1 µg/mL | 0.5 µg/mL | 0.06 µg/mL | MIC ([1]; ΔramR/S83I/D87N/S80I mutant): > 32 µg/mL; MIC [1, 19]: 0.5 µg/mL; MIC [1, 20]: 0.5 µg/mL; MIC [1, 21]: 0.06 µg/mL; MIC [1, 22]: 1 µg/mL; MIC [1, 23]: > 32 µg/mL; MIC [1, 24]: 8 µg/mL; MIC [1, 25]: 0.06 µg/mL; MIC ([2]; E84K mutant): 0.19 µg/mL; MIC ([2]; G78C mutant): 0.19 µg/mL; MIC ([2]; KW1, read-out: MIC): 0.19 µg/mL; MIC ([2]; S80L mutant): 0.19 µg/mL; MIC ([2]; S80W mutant): 0.19 µg/mL; MIC ([2]; S80Y mutant): 0.19 µg/mL; MIC ([2]; S83L mutant): 1 µg/mL; MIC ([2]; S83L/E84K mutant): > 32 µg/mL; MIC ([2]; S83L/G78C mutant): 32 µg/mL; MIC ([2]; S83L/S80L mutant): > 32 µg/mL; MIC ([2]; S83L/S80W mutant): > 32 µg/mL; MIC ([2]; S83L/S80Y mutant): > 32 µg/mL
